Entries after “also recorded” stand apart in the source; their conditions may differ. Read-outs that look alike come from different tables or passages of the source.
Tests used:
[1] = tested on: atzR (via atzABC conversion of atrazine to cyanuric acid); assay type: biochemical, E. coli extracts; Pseudomonas ADP-1 pathway; settings: for time at which ON is distinguished from OFF (kinetic divergence): 100 μM atrazine; for sensor response to triazines (specificity): FIG. 19C
[2] = tested on: atzR (via atzABC conversion of atrazine to cyanuric acid); assay: Colorimetric atrazine sensor (C23O reporter), freeze-dried reactions; assay type: biochemical, E. coli extracts; Pseudomonas ADP-1 pathway
[3] = tested on: unregulated cell-free protein synthesis reaction (cell-free transcription and translation); assay type: biochemical, E. coli
[4] = tested on: NarX / NarL two-component system
[5] = tested on: NarX / NarL two-component system; settings: colorimetric C32O reporter
[6] = tested on: AtzR transcription factor; assay: Cell-free cyanuric acid sensor: AtzR-regulated sfGFP reporter; assay type: biochemical, Pseudomonas sp. ADP-1; settings: for fold-induction of sfGFP: 100 μM
[7] = tested on: AtzR transcription factor; assay: Cell-free cyanuric acid sensor with colorimetric catechol 2,3-dioxygenase reporter; assay type: biochemical, Pseudomonas sp. ADP-1; settings: 600 μM CYA in ON state; tubes with catechol at 30° C.
Experimental: FIG. 18. Proof-of-concept for field-deployable cyanuric acid sensing using a cell-free biosensor. (a) Optimized cell-free reactions are prepared without cyanuric acid (CYA), freeze-dried, and then rehydrated with unfiltered environmental water samples. (b) CYA in environmental water samples can be detected from freeze-dried cell-free reactions. […] (c) Time course comparisons of the OFF state from panel B, for the unfiltered environmental water samples that were not spiked with CYA. Pool water can be distinguished against lake water in less than one hour. […] CYA was added at a concentration of 600 μM in the ON state to a fresh cell-free reaction incubated at 30° C. and monitored for 90 minutes. […] Fluorescence in b and c is reported standardized to mean equivalent fluorescence (MEF) of fluorescein isothiocyanate based on a previously developed standard.
Finally, we aimed to validate if a visible output signal for the sensor could be generated without a plate reader to enable equipment-free detection of CYA from environmental samples. […] Because fluorescence of sfGFP is difficult to detect by the unaided eye, particularly in the early stages of the reaction, we replaced the coding sequence of the reporter plasmid instead with the enzyme catechol 2,3-dioxygenase (C23DO). […]

CCNc1nc(Cl)nc(NC(C)C)n1 [atrazine]
calculated limit of detection above background [1]: approximately 20 μM
time at which ON is distinguished from OFF (kinetic divergence) ([1]; optimized sensor): approximately one hour
time at which ON is distinguished from OFF (kinetic divergence) ([1]; optimized sensor, listed as Atrazine): within one hour
sensor response to triazines (specificity) [1]: capable of detecting
detection by sensor ([1]; doped at 100 μM, all enriched extracts plus blank extract): could detect
overall limit of detection (figure legend) ([1]; optimized sensor, dose-response curve FIG. 22E): around 20
EC50 ([1]; read-out: half-maximal signal): ~66 µM
reactions changing color ([2]; 100 nM atrazine, three replicates, four-hour limit): one of the three reactions
limit of detection for the enzymatic reporter ([2]; freeze-dried, all three replicates turned on within four-hour limit): 1
poisoning / inhibitory effect on cell-free protein synthesis (sfGFP) ([3]; 100 μM): Minimal poisoning

O=[N+]([O-])O [nitrate]
sensor activation ([4]; 1 mM nitrate, absence of supplemental NarX): activated
detection by sensor ([4]; 1 mM nitrate, certain ratios of NarX- and NarL-enriched extracts): robust detection
sensitivity of cell-free system ([4]; optimal conditions, sfGFP reporter): more sensitive than the environmental limit
lowest concentration detected, visible by naked eye [5]: 10 µM

O=c1[nH]c(=O)[nH]c(=O)[nH]1 [cyanuric acid]
fold-induction of sfGFP ([6]; optimal 1 nM AtzR plasmid and 10 nM reporter plasmid, 4-hour incubation): > 12 fold
fold-induction of sfGFP ([6]; reporter based on Promoter P2 (E. coli consensus −10 site), promoter screen): ~8 fold
linear operating range of dose-response ([6]; optimal plasmid concentrations): 0 to 100 µM
sensor response to triazines (specificity) [1]: capable of detecting
time to production of yellow color (reporter activation) [7]: ≤ 1 h

Nc1nc(N)nc(N)n1 [melamine]
sensor response to triazines (specificity) [1]: unreactive
poisoning / inhibitory effect on cell-free protein synthesis (sfGFP) ([3]; 100 μM): Minimal poisoning

CC(C)Nc1nc(Cl)nc(NC(C)C)n1 [propazine]
sensor response to triazines (specificity) [1]: weak activation; also recorded: capable of detecting
poisoning / inhibitory effect on cell-free protein synthesis (sfGFP) [3]: Minimal poisoning
